One assay relates to THP-1 cells. In words: LPS induced cytokine (TNFα and IL8) production assay in THP-1 cells. To be noted: Homo sapiens, 300 ng/mL LPS. The assay is classed as cell-based. The protocol:
Cytokine Production Assay
Provided compounds were also assayed in an LPS (Lipopolysacharide) or R848 (TLR-7 agonist) induced cytokine (TNFα and IL8) production assay in THP-1 cells, human peripheral blood mononuclear cells (hPBMC), and whole blood. The exemplary protocol for this assay in THP-1 cells was as follows below.
THP-1 cells from ATCC (TIB-202) were cultured in RPMI Medium 1640 (Invitrogen, Cat No. A10491-01), 10% fetal bovine serum (Invitrogen, Cat No. 10099141, Lot No. 8172882) containing 100 U/mL Penicillin, 100 μg/mL streptomycin (Invitrogen, Cat No. 15140-122), and 50 uM 2-Mercaptoethanol (Invitrogen, Cat No. 21985023). LPS-EK ultra pure (Invivogen, Cat No. tlrl-peklps) was used to induce IL8 and TNFα production, that was detected in the cell culture supernatant by IL8 HTRF kit (Cisbio, Cat No. 62IL8PEB) and TNFα HTRF kit (Cisbio, Cat No. 62TNFPEB), as per manufacturer instructions. Cells were cultured in 96 well assay plates at 100,000 cells per well, and compounds diluted in final 0.3% DMSO were pre-incubated with cells for 1 hour prior to stimulation with 300 ng/mL LPS. Cytokine production in cell supernatant was measured at 5 hours for TNFα and IL8 production, and for 16 hours for IL8 production and assessment of cell viability.
The compound numbers correspond to the compound numbers in Table 1. […] “NA” stands for “not assayed.”

The target in another assay is T1, IRAK4 (Homo sapiens, UniProt Q9NWZ3).
T1 sequence (Q9NWZ3 1-460): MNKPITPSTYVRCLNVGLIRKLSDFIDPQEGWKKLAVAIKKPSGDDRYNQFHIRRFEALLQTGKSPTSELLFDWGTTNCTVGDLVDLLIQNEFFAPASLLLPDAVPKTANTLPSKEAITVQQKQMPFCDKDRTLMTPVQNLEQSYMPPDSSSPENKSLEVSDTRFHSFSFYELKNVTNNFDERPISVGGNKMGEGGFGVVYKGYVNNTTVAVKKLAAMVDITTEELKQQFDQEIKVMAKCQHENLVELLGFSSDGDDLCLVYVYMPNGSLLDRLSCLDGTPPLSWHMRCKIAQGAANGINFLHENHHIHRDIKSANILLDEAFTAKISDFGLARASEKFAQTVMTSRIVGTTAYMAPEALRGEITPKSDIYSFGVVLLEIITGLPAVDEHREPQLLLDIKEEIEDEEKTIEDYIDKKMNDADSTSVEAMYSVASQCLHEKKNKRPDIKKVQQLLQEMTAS
Description: IRAK-4 activity inhibition assay (Caliper). In kind it is biochemical. To be noted: 37 μM ATP, 3.5 nM IRAK4.

Like-named read-outs stand apart in the source and are kept apart here.

`NC(=O)[C@@H](O)C[C@H]1CCc2sc3ncnc(O[C@H]4CC[C@H](N5CCCCC5)CC4)c3c21` [Compound I-217, (S)-2-hydroxy-3-((R)-4-(((1r,4R)-4-(piperidin-1-yl)cyclohexyl)oxy)-6,7-dihydro-5H-cyclopenta[4,5]thieno[2,3-d]pyrimidin-5-yl)propanamide]: the IC50 (as a rule, the concentration needed to halve the response being measured) in the assay with THP-1 cells (read-out: IL8 production IC50) is at most 500 nM; in the assay with THP-1 cells (read-out: TNFα production IC50), at most 500 nM; on IRAK4, under 5000 nM.

On to `CN(C)[C@H]1CC[C@H](Oc2ncnc3sc4c(c23)[C@@H](C[C@@H](O)C(F)(F)F)CC4)CC1` [Compound I-68, (R)-3-((R)-4-(((1r,4R)-4-(dimethylamino)cyclohexyl)oxy)-6,7-dihydro-5H-cyclopenta[4,5]thieno[2,3-d]pyrimidin-5-yl)-1,1,1-trifluoropropan-2-ol], for which the half-maximal inhibitory concentration (IC50) with THP-1 cells (read-out: IL8 production IC50) was at most 500 nM; in the assay with THP-1 cells (read-out: TNFα production IC50) it was 500 to 1000 nM; at IRAK4, under 5000 nM.

As to `C[C@H](O)C[C@H]1CCc2sc3ncnc(O[C@H]4CC[C@H](N5CCOCC5)CC4)c3c21` [Compound I-83, (S)-1-((R)-4-(((1 r,4R)-4-morpholinocyclohexyl)oxy)-6,7-dihydro-5H-cyclopenta[4,5]thieno[2,3-d]pyrimidin-5-yl)propan-2-ol], the figures for the IC50 with THP-1 cells (read-out: TNFα production IC50) and against IRAK4 were 500 to 1000 nM and under 5000 nM, respectively.

Take `C[C@@H](O)C[C@H]1CCc2sc3ncnc(O[C@H]4CC[C@H](N(C)CC(=O)N5CCCC5)CC4)c3c21` [Compound I-109, 2-[(4-[[(3R)-3-[(2R)-2-hydroxypropyl]-7-thia-9,11-diazatricyclo[6.4.0.0[2,6]]dodeca-1(8),2(6),9,11-tetraen-12-yl]oxy]cyclohexyl)(methyl)amino]-1-(pyrrolidin-1-yl)ethan-1-one]: the IC50 with THP-1 cells (read-out: TNFα production IC50) is 500 to 1000 nM; against IRAK4 it was under 5000 nM.

Regarding `CN(C)[C@H]1CC[C@H](Oc2ncnc3sc4c(c23)[C@@H](C[C@H](O)C(=O)NCO)CC4)CC1` [Compound I-100, (S)-3-((R)-4-(((1r,4R)-4-(dimethylamino)cyclohexyl)oxy)-6,7-dihydro-5H-cyclopenta[4,5]thieno[2,3-d]pyrimidin-5-yl)-2-hydroxy-N-(hydroxymethyl)propanamide], the results for the IC50 in the assay on THP-1 cells (read-out: IL8 production IC50), in the assay on THP-1 cells (read-out: TNFα production IC50) and at IRAK4 were 1000 to 5000 nM, 1000 to 5000 nM and under 5000 nM, respectively.

`CN(C)[C@H]1CC[C@H](Oc2ncnc3sc4c(c23)[C@@H](CCO)CC4)CC1` [Compound I-34, 2-[(3R)-12-[[4-(dimethylamino)cyclohexyl]oxy]-7-thia-9,11-diazatricyclo[6.4.0.0[2,6]]dodeca-1(12),2(6),8,10-tetraen-3-yl]ethan-1-ol]: the IC50 in the assay on THP-1 cells (read-out: IL8 production IC50) was 1000 to 5000 nM; in the assay on THP-1 cells (read-out: TNFα production IC50) it was 1000 to 5000 nM; at IRAK4 it was under 5000 nM.

`NC(=O)[C@H](O)C[C@H]1CCc2sc3ncnc(O[C@H]4CC[C@H](N5CCCC5)CC4)c3c21` [Compound I-228, (R)-2-hydroxy-3-((R)-4-(((1r,4R)-4-(pyrrolidin-1-yl)cyclohexyl)oxy)-6,7-dihydro-5H-cyclopenta[4,5]thieno[2,3-d]pyrimidin-5-yl)propanamide]: the figures for the IC50 in the assay on THP-1 cells (read-out: IL8 production IC50), in the assay with THP-1 cells (read-out: TNFα production IC50) and on IRAK4 were at most 500 nM, at most 500 nM and under 5000 nM, respectively.

`CN(C)[C@H]1CC[C@H](Oc2ncnc3sc4c(c23)[C@@H](CC(O)C(N)=O)CC4)CC1` (stereo partly drawn) [Compound I-57, 3-[(3R)-12-[[4-(dimethylamino)cyclohexyl]oxy]-7-thia-9,11-diazatricyclo[6.4.0.0[2,6]]dodeca-1(8),2(6),9,11-tetraen-3-yl]-2-hydroxypropanamide]: the IC50 in the assay on THP-1 cells (read-out: IL8 production IC50) is at most 500 nM; in the assay with THP-1 cells (read-out: TNFα production IC50) it was at most 500 nM; against IRAK4, under 5000 nM.

In the case of `CN(C)[C@H]1CC[C@H](Oc2ncnc3sc4c(c23)[C@@H](CC(F)(F)C(N)=O)CC4)CC1` [Compound I-144, 3-[(3R)-12-[[4-(dimethylamino)cyclohexyl]oxy]-7-thia-9,11-diazatricyclo[6.4.0.0[2,6]]dodeca-1(8),2(6),9,11-tetraen-3-yl]-2,2-difluoropropanamide], the IC50 in the assay with THP-1 cells (read-out: IL8 production IC50) is at most 500 nM; in the assay with THP-1 cells (read-out: TNFα production IC50) it was at most 500 nM; on IRAK4, under 5000 nM.

In the case of `NC(=O)[C@H]1CCc2sc3ncnc(N[C@H]4CC[C@H](N5CCOCC5)CC4)c3c2C1` [Compound I-207, (12S)-3-[[4-(morpholin-4-yl)cyclohexyl]amino]-8-thia-4,6-diazatricyclo[7.4.0.0[2,7]]trideca-1(9),2(7),3,5-tetraene-12-carboxamide], the IC50 in the assay on THP-1 cells (read-out: IL8 production IC50) is 1000 to 5000 nM; with THP-1 cells (read-out: TNFα production IC50) it was 1000 to 5000 nM; against IRAK4 it was under 5000 nM.

As to `CN[C@H]1CC[C@H](Oc2ncnc3sc4c(c23)[C@@H](C[C@H](O)C(N)=O)CC4)CC1` [Compound I-137, (2S)-2-hydroxy-3-[(3R)-12-[[4-(methylamino)cyclohexyl]oxy]-7-thia-9,11-diazatricyclo[6.4.0.0[2,6]]dodeca-1(8),2(6),9,11-tetraen-3-yl]propanamide], the IC50 with THP-1 cells (read-out: IL8 production IC50) was 500 to 1000 nM; in the assay with THP-1 cells (read-out: TNFα production IC50) it was 500 to 1000 nM; at IRAK4, under 5000 nM.

For the molecule `CC[C@@H](O)C[C@H]1CCc2sc3ncnc(O[C@H]4CC[C@H](N(C)C)CC4)c3c21` [Compound I-106], the IC50 was 500 to 1000 nM in the assay with THP-1 cells (read-out: IL8 production IC50), 500 to 1000 nM in the assay with THP-1 cells (read-out: TNFα production IC50) and under 5000 nM against IRAK4.

Regarding `CN(CC(=O)N1CCCC1)[C@H]1CC[C@H](Oc2ncnc3sc4c(c23)[C@@H](CCO)CC4)CC1` [Compound I-90, 2-(((1R,4r)-4-(((R)-5-(2-hydroxyethyl)-6,7-dihydro-5H-cyclopenta[4,5]thieno[2,3-d]pyrimidin-4-yl)oxy)cyclohexyl)(methyl)amino)-1-(pyrrolidin-1-yl)ethanone], the IC50 in the assay with THP-1 cells (read-out: TNFα production IC50) is 1000 to 5000 nM; at IRAK4, under 5000 nM.

As to `CN(CC(=O)N1CCCC1)[C@H]1CC[C@H](Oc2ncnc3sc4c(c23)[C@@H](CCC(N)=O)CC4)CC1` [Compound I-94, 3-((S)-4-(((1r,4S)-4-(methyl(2-oxo-2-(pyrrolidin-1-yl)ethyl)amino)cyclohexyl)oxy)-6,7-dihydro-5H-cyclopenta[4,5]thieno[2,3-d]pyrimidin-5-yl)propanamide], the IC50 with THP-1 cells (read-out: TNFα production IC50) is at least 5000 nM; against IRAK4, under 5000 nM.

The values above are taken from patent US20160193216A1 (Nimbus Iris, Inc., priority 2012, published 2016).
